In patent publication US5491135A (priority 1993, dated 1996):
In brackets after ≈: the same amount, converted by molar mass. Several values for one entry are separate records, joined by “and”; a condition that tells them apart may be missing. Identical values can stand only once. Entries after “also recorded” stand apart in the source; their conditions may differ. Like-named read-outs stand apart in the source and are kept apart here.

Key:
[1] = tested on: respiratory syncytial virus (RSV); experiment: RSV infection in cotton rats, lung titre; assay type: in vivo, cotton rat; settings: for RSV lung titre: individual animal
From the text: 1. 50 to 100 g cotton rats of either sex inoculated i.n. with RS A2 (pool 8-28-92) on day 0.
2. On day +1 animals were given placebo or PALA as follows:
3. All animals killed on day +4 and their lungs tested for RSV levels.

herpes virus-2 = experiment: In vitro antiviral assay; assay type: cell-based
humoral immune response = settings: tumor bearing animals; cited from earlier work
herpesvirus = settings: less effective by a factor; cited from earlier work
Vaccinia virus [2] = experiment: microbe, parasite or virus in culture; assay type: cell-based, vaccinia virus (Lederle vaccine); settings: Vero
Varicella = experiment: In vitro antiviral assay; assay type: cell-based; settings: Vero
in vitro [3] = settings: human, cem cells
Vero cells = settings: uninfected
HCMV strain AD 169 = experiment: Rabbit HCMV efficacy and time course recovery (Example 6); settings: for Chorioretinal score (C) / Vitreitis score (V): sham-inoculated S1-S5, dose as groups 1-5
[4] = Cytotoxicity in human foreskin fibroblasts; settings: hff cells
[5] = tested on: Venezuelan equine encephalitis virus; settings: Vero; 50% inhibition
CMV = experiment: In vitro antiviral assay; assay type: cell-based
Herpes-1 = experiment: In vitro antiviral assay; assay type: cell-based; settings: Vero
Coxsackie B3 = experiment: In vitro antiviral assay; assay type: cell-based
RNA and DNA viruses = assay type: cell-based; settings: most viruses of Table 3
Yellow fever virus = settings: Vero
[6] = Cytotoxicity in Hep-2 cells; settings: human
Punta toro virus = settings: Vero
vaccinia virus [7] = settings: for Vaccinia Lesion Score: per monkey
HIV-1 = experiment: In vitro antiviral MTT CPE assay; assay type: cell-based
[8] = used alone; cited from earlier work
[9] = tested on: Japanese encephalitis virus; settings: Vero; 50% inhibition
Paramyxo-3 = experiment: In vitro antiviral assay; assay type: cell-based
in vitro [10] = experiment: in vitro
[11] = tested on: L-aspartic acid transcarbamylase (ATCase); settings: cited from earlier work
Sandfly fever virus = settings: Vero
[12] = day 3, PALA 50, DHPG 10 or both, mg/kg/d
[13] = day 4, PALA 50, DHPG 10 or both, mg/kg/d
[14] = day 5, PALA 50, DHPG 10 or both, mg/kg/d
[15] = day 6, PALA 50, DHPG 10 or both, mg/kg/d
[16] = day 8, PALA 125 mg/kg day 1 & 7
[17] = day 10, PALA 125 mg/kg day 1 & 7
[18] = day 10, PALA 50, rifampicin 10 mg/kg/d or both
[19] = day 13, PALA 125 mg/kg day 1 & 7
[20] = day 13, PALA 50, rifampicin 10 mg/kg/d or both

O=C(O)C[C@H](NC(=O)CP(=O)(O)O)C(=O)O [PALA]
RSV lung titre, mean (SD) ([1]; PALA 3 mg/kg/day): 3.3 (0.3) LOG10 /G Lung | RSV lung titre ([1]; PALA 3 mg/kg): 3.9 LOG10 and 3.5 LOG10 and 2.9 LOG10 and 3.0 LOG10 | RSV lung titre, mean (SD) ([1]; PALA 10 mg/kg/day): 2.8 (0.5) LOG10 /G Lung | decrease of viral titre over control ([1]; PALA 10 mg/kg/day): 1 log10 | RSV lung titre ([1]; PALA 10 mg/kg): 2.4 LOG10 and 2.9 LOG10 and 2.5 LOG10 and 3.5 LOG10 | efficacy against RSV ([1]; i.p.): more effective than ribavirin or combinational therapy; also recorded: statistically significant efficacy; also recorded: statistically better than ribavirin; also recorded: more effective as a single agent therapy in vivo against respiratory syncytial virus than ribavirin | inhibitory activity (herpes virus-2): no inhibitory activity | effect on humoral immune response (humoral immune response): does not appear to significantly alter humoral immune response | antiherpes effectiveness relative to parent PAA (herpesvirus): over 200 | IC50 (Vaccinia virus [2]; Orthopoxvirus vaccinia): 10 µg/mL (≈ 39.2 µM) | TI (Vaccinia virus [2]): 32.0 | IC50 (Varicella): 10 µg/mL (≈ 39.2 µM) | TI (Varicella): 32.0 | CC50 (in vitro [3]): 60 µg/mL (≈ 235 µM) | TC50 (Vero cells): > 320 µg/mL | HCMV recovery (HCMV strain AD 169; PALA 50, DHPG 10 or both, mg/kg/day i.v.): better than recovery in placebo treated eyes | HCMV Recovered, OD (HCMV strain AD 169; [12]): + | HCMV Recovered, OS (HCMV strain AD 169; [12]): + | HCMV Titer, OD (HCMV strain AD 169; [12]): 10^4 pfu | HCMV Titer, OS (HCMV strain AD 169; [12]): 10^4 pfu | HCMV recovery frequency (HCMV strain AD 169; [12]): 2/2 | Chorioretinal score (C) (HCMV strain AD 169; day 3): 0 | Vitreitis score (V) (HCMV strain AD 169; day 3): 0 | HCMV Recovered, OD (HCMV strain AD 169; [13]): + | HCMV Recovered, OS (HCMV strain AD 169; [13]): + | HCMV Titer, OD (HCMV strain AD 169; [13]): 10^3 pfu | HCMV Titer, OS (HCMV strain AD 169; [13]): 10^2 pfu | HCMV recovery frequency (HCMV strain AD 169; [13]): 2/2 | Chorioretinal score (C) (HCMV strain AD 169; day 4): 0 | Vitreitis score (V) (HCMV strain AD 169; day 4): 0 | HCMV Titer, OD (HCMV strain AD 169; day 5, PALA 50 mg/kg/d): 10^1 pfu | HCMV Titer, OS (HCMV strain AD 169; day 5, PALA 50 mg/kg/d): 10^2 pfu | HCMV Recovered, OD (HCMV strain AD 169; [14]): + | HCMV Recovered, OS (HCMV strain AD 169; [14]): + | HCMV recovery frequency (HCMV strain AD 169; [14]): 2/2 | Chorioretinal score (C) (HCMV strain AD 169; day 5): 0 | Vitreitis score (V) (HCMV strain AD 169; day 5): 0 | HCMV Titer, OS (HCMV strain AD 169; day 6, PALA 50 mg/kg/d): 10^1 pfu | HCMV Recovered, OD (HCMV strain AD 169; [15]): + | HCMV Recovered, OS (HCMV strain AD 169; [15]): + | HCMV recovery frequency (HCMV strain AD 169; [15]): 2/2 | HCMV Titer, OD (HCMV strain AD 169; day 6, PALA 50 or DHPG 10 mg/kg/d): 10^1 pfu | Chorioretinal score (C) (HCMV strain AD 169; day 6): 0 | Vitreitis score (V) (HCMV strain AD 169; day 6): 0 | Chorioretinal score (C) (HCMV strain AD 169; day 7): 0 | Vitreitis score (V) (HCMV strain AD 169; day 7): 0 | Chorioretinal score (C) (HCMV strain AD 169; day 10): 0 | Vitreitis score (V) (HCMV strain AD 169; day 10): 0 | vitreitis / chorioretinal disease (HCMV strain AD 169; sham-inoculated S1, PALA 50 mg/kg/day): did not develop any vitreitis nor chorioretinal disease | CC50 [4]: > 320 µg/mL | TI (TC50/IC50) [5]: 0.00 | TI (CMV; HFF): 32.0 | IC50 (CMV; Human betaherpesvirus 5, HFF): 10 µg/mL (≈ 39.2 µM) | IC50 (Herpes-1): no inhibitory activity and None | IC50 (Coxsackie B3; Enterovirus B, B3, Vero): ~33 µg/mL (≈ 129 µM) | TI (Coxsackie B3; Vero): 9.7 | therapeutic index (RNA and DNA viruses): about 32 | IC50 (Yellow fever virus): 13.4 µg/mL (≈ 52.5 µM) | TI (TC50/IC50) (Yellow fever virus; 50% inhibition): > 19.22 and > 23.82 | TI(95) (Yellow fever virus; 95% inhibition): > 10.68 and > 10.38 | CC50 [6]: > 320 µg/mL | IC50 (Punta toro virus): 18.4 µg/mL (≈ 72.1 µM) | TI (TC50/IC50) (Punta toro virus; 50% inhibition): > 21.05 and > 17.35 | TI(95) (Punta toro virus; 95% inhibition): > 10.00 | gross pathology (vaccinia virus [7]; PALA 125 mg/kg i.v. bolus): dark red discoloration of the liver | lesion development (vaccinia virus [7]; PALA 125 mg/kg, days 1 and 7): greater than what was seen in monkeys treated daily with PALA at a lower dose | virus titers in skin (vaccinia virus [7]; PALA 125 mg/kg, days 1 and 7): Higher titers | lesion development (vaccinia virus [7]; PALA 50, rifampicin 10 or both, mg/kg/day i.v.): effective in reducing lesion development and size | Weight (vaccinia virus [7]; day 0, PALA 125 mg/kg day 1 & 7): 3.2 kg and 3.4 kg and 4.4 kg | Weight (vaccinia virus [7]; day 0, PALA 50, rifampicin 10 mg/kg/d or both): 2.4 kg and 3.4 kg and 2.6 kg | Vaccinia Lesion Score, group mean (vaccinia virus [7]; day 3, PALA 125 mg/kg day 1 & 7): 0.5 | Vaccinia Lesion Score, group mean (vaccinia virus [7]; day 3, PALA 50, rifampicin 10 mg/kg/d or both): 0.1 | Vaccinia Lesion Score, group mean (vaccinia virus [7]; day 6, PALA 125 mg/kg day 1 & 7): 0.7 | Vaccinia Lesion Score, group mean (vaccinia virus [7]; day 6, PALA 50, rifampicin 10 mg/kg/d or both): 0.6 | Vaccinia Lesion Score, group mean (vaccinia virus [7]; day 7, PALA 125 mg/kg day 1 & 7): 0.9 | Vaccinia Lesion Score, group mean (vaccinia virus [7]; day 7, PALA 50, rifampicin 10 mg/kg/d or both): 0.5 | Vaccinia Lesion Score, group mean (vaccinia virus [7]; [16]): 1.3 | Vaccinia Lesion Score (vaccinia virus [7]; [16]): 0.7 and 1.8 | Vaccinia Lesion Score, group mean (vaccinia virus [7]; day 8, PALA 50, rifampicin 10 mg/kg/d or both): 0.5 | Vaccinia Lesion Score, group mean (vaccinia virus [7]; day 9, PALA 125 mg/kg day 1 & 7): 1.2 | Vaccinia Lesion Score, group mean (vaccinia virus [7]; day 9, PALA 50, rifampicin 10 mg/kg/d or both): 0.3 | Vaccinia Lesion Score, group mean (vaccinia virus [7]; [17]): 0 | Vaccinia Lesion Score (vaccinia virus [7]; [17]): 0 | Vaccinia Lesion Score, group mean (vaccinia virus [7]; [18]): 0 | Weight (vaccinia virus [7]; [18]): 2.2 kg and 3.2 kg and 2.4 kg | Vaccinia Lesion Score (vaccinia virus [7]; [18]): 0 | Vaccinia Lesion Score, group mean (vaccinia virus [7]; [19]): 0.5 | Vaccinia Lesion Score (vaccinia virus [7]; [19]): 0.3 and 0.7 | Vaccinia Lesion Score, group mean (vaccinia virus [7]; [20]): 0 | Vaccinia Lesion Score (vaccinia virus [7]; [20]): 0 | Weight (vaccinia virus [7]; day 14, PALA 125 mg/kg day 1 & 7): 3.2 kg and 4.4 kg | Weight (vaccinia virus [7]; day 14, PALA 50, rifampicin 10 mg/kg/d or both): 2.0 kg and 3.2 kg and 2.4 kg | Weight (vaccinia virus [7]; day 21, PALA 125 mg/kg day 1 & 7): 3.4 kg and 4.2 kg | Weight (vaccinia virus [7]; day 21, PALA 50, rifampicin 10 mg/kg/d or both): 2.0 kg and 3.4 kg and 2.6 kg | signs of toxicity (vaccinia virus [7]; except one monkey at PALA 125 mg/kg bolus): No appreciable signs of toxicity | Titer of vaccinia virus in skin biopsy (vaccinia virus [7]; head prints day 6, PALA 125 mg/kg day 1 & 7): 1.3 × 10^5 PFU/ml and 1.8 × 10^10 PFU/ml | TI (HIV-1; CEM): ~ 5.0 | IC50 (HIV-1; Human immunodeficiency virus 1, CCRF-CEM): 12 µg/mL (≈ 47 µM) | clinical efficacy in cancer [8]: relatively nonefficacious | TI (TC50/IC50) [9]: > 18.59 and > 18.80 | IC50 (Paramyxo-3; HEp-2): 10 µg/mL (≈ 39.2 µM) | TI (Paramyxo-3; Hep-2): 32.0 | CC50 (in vitro [10]; uninfected vero cells): > 320 µg/mL | CC50 (in vitro [10]; vero cells): > 320 µg/mL | Ka, avidity relative to carbamyl phosphate [11]: 1000 × | IC50 (Sandfly fever virus): 14.9 µg/mL (≈ 58.4 µM) | TI (TC50/IC50) (Sandfly fever virus; 50% inhibition): > 15.32 and > 21.54
